# Reference: ChEMBL document CHEMBL1201862, “PubChem BioAssay data set” (2004)
# The source made the active and inactive calls.
# Tests used:
# HeLa = experiment: HeLa cell cytotoxicity, dose response, cytotoxicity control for MITF activator project, CellTiter-Glo luminescence, cherry-pick samples (AID 540259); format: functional, cell-based; conditions: Homo sapiens
# [1] = cytotoxicity toward DRD oncogenic fibroblasts, dose response, cell-based, non-viral oncogenic, luminescence (AID 1934); format: functional; conditions: Homo sapiens
# Vero [2] = experiment: cells; format: functional, cell-based; conditions: Chlorocebus sabaeus
# BJ [3] = experiment: cells; format: functional, cell-based; conditions: Homo sapiens
# [4] = Luminescence Cell-Based Dose Response HTS to Identify Inhibitors of 5'UTR Stem-Loop Driven Prion Protein mRNA Translation in H4 Neuroglioblastoma Cells. [Related pubchem assays: 1827 (Project Summary), 1813 (Primary HTS)]; format: functional
# [5] = inhibitors of firefly luciferase expression or activity, dose response, H4 neuroglioma cells, luminescence (AID 1990); format: functional, cell-based
# BJ [6] = experiment: cytotoxicity toward BJ-TERT fibroblasts, dose response, cell-based, RAS-independent, luminescence (AID 1933); format: functional; conditions: Homo sapiens
# Vero [7] = experiment: cells; format: functional; conditions: Chlorocebus sabaeus
# BJ [8] = experiment: cytotoxicity toward BJ-TERT-LT-ST fibroblasts, dose response, cell-based, RAS-independent, luminescence (AID 1935); format: functional; conditions: Homo sapiens;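 note: BJ fibroblasts immortalized with TERT plus LT and ST oncogenes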
# HEK293 [9] = experiment: cells; conditions: Homo sapiens
# [10] = growth suppression of PTEN-null colon cells, dose response, cell-based, HCT116 PTEN knockout (AID 1047); format: functional;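 note: HCT116 colon tumor cells with PTEN knocked out; cells exposed to compound for 60 hours before readout; potency for loss of cell viability measured by luminescence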
# [11] = HEp-2 cell cytotoxicity, dose response, cytotoxicity control for RSV inhibitor project, HTS (AID 2410); format: functional; conditions: human respiratory syncytial virus
# [12] = Shn3 3'UTR reporter inhibitors, dose response, cell-based, Clone20 osteoblasts, firefly luciferase, cherry-picked (AID 624132); format: functional;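 note: firefly luciferase luminescence from reporter carrying the Shn3 3'UTR in osteoblasts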
# [13] = Luminescence Cell-Based Dose Confirmation HTS to Identify Inhibitors of Platelet Dense Granule Release. [Related pubchem assays: 1663 (Primary HTS), 1678 (Summary of Project)]; format: functional
# [14] = control 3'UTR Renilla luciferase suppression, dose response, counter-screen for Shn3 inhibitor project, cell-based, Clone20-Shn3RL, cherry-picked (AID 624133); format: functional
# [15] = biological target: T1, Voltage-gated N-type calcium channel alpha-1B subunit/Amyloid beta A4 precursor protein-binding family A member 1 (Homo sapiens, UniProt Q00975+Q02410); format: protein assay
# [16] = biological target: Luciferin 4-monooxygenase (Photinus pyralis, UniProt P08659); experiment: firefly luciferase enzyme inhibitors, dose response, biochemical, luminescence (AID 1891)
# [17] = HepG2 cell cytotoxicity, dose response, cytotoxicity control for Shn3 inhibitor project, CellTiter-Glo, cherry-picked (AID 624134); format: functional, cell-based
# HEK293 [18] = experiment: cells; conditions: Homo sapiens; remark: listed apart in the source
# [19] = biological target: Heat shock protein HSP 90-alpha (Homo sapiens, UniProt P07900); format: functional, organism-based
# [20] = biological target: T1, Voltage-gated N-type calcium channel alpha-1B subunit/Amyloid beta A4 precursor protein-binding family A member 1; format: protein assay; remark: listed apart in the source
# [21] = growth suppression of beta-catenin-knockout colon cells, dose response, cell-based, HCT116, human colon tumor (AID 1045); format: functional;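 note: HCT116 colon tumor cells with beta catenin knocked out; cells exposed to compound for 60 hours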
# [22] = biological target: T2, Short transient receptor potential channel 4 (Mus musculus, UniProt Q9QUQ5); experiment: mouse TRPC4 channel inhibitors, dose response, cell-based, HEK293 TRPC4/mu-opioid, Fluo-4 calcium (AID 434942); format: functional;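 note: potency of inhibitors blocking the TRPC4 calcium response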
# T2 sequence (Q9QUQ5 whole entry): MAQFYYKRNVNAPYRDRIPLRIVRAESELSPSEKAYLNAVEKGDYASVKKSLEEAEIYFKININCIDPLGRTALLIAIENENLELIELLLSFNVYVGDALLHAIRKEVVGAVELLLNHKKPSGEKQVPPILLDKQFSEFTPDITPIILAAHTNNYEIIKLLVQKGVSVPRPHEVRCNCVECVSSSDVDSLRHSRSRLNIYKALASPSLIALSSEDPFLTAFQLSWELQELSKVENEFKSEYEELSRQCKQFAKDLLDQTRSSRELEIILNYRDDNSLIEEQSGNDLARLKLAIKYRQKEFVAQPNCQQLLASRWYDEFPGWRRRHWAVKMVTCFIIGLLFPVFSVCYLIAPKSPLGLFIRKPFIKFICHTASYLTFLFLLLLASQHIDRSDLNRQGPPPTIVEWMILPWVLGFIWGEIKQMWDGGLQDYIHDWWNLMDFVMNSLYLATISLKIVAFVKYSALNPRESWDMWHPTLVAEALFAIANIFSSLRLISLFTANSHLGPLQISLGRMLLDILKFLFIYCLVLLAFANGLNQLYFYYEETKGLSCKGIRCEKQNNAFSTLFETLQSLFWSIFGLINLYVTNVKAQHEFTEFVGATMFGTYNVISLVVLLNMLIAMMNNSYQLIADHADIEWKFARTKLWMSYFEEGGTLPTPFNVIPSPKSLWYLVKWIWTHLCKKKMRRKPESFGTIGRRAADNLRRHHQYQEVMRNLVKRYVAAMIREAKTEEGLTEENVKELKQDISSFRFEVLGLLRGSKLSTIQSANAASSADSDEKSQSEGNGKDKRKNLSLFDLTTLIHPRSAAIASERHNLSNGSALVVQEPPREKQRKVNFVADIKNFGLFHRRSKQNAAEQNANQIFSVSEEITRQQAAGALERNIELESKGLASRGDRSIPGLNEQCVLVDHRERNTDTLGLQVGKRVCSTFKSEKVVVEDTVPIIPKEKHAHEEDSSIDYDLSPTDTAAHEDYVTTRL
# Perilipin-1/ABHD5 = biological target: T3, Perilipin-1/ABHD5 (Homo sapiens, UniProt O60240+Q8WTS1); experiment: Luminescence-based biochemical high throughput dose response assay for inhibitors of the interaction of the lipase co-activator protein, abhydrolase domain containing 5 (ABHD5) with perilipin-1 (PLIN1) (2K validation set). [Related pubchem assays (depositor defined):AID493027, AID493057]
# T3 sequence (Q8WTS1 whole entry): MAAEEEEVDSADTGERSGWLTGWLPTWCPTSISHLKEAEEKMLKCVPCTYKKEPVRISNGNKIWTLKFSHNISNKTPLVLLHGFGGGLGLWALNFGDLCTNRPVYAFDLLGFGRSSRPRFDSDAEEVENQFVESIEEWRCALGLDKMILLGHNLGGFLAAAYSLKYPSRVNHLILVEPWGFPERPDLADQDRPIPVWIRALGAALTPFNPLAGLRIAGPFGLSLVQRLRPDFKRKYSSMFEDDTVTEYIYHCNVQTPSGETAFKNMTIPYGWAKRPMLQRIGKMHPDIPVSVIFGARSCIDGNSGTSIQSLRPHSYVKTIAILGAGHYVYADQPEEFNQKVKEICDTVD
# T3 sequence (O60240 whole entry): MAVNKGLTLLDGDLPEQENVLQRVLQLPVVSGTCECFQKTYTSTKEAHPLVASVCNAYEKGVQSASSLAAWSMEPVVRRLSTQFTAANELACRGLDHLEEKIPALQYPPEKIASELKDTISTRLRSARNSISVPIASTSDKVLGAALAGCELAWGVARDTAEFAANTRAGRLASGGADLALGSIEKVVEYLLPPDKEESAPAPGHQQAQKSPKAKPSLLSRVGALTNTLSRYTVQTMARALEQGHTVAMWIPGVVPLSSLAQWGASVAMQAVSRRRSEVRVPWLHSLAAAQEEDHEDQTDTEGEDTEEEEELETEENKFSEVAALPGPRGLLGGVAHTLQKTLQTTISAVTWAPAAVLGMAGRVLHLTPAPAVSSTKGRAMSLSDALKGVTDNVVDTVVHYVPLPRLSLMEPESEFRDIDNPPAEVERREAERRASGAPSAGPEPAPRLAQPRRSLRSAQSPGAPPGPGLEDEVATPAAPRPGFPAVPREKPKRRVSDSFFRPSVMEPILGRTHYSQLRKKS
# [23] = Luminescence Cell-Based Dose Retest to Confirm Inhibitors of Cancer Stem Cells. [Related pubchem assays (depositor defined):AID2717, AID2721]; format: functional; conditions: Homo sapiens
# Protein skinhead-1 = biological target: T4, Protein skinhead-1 (Caenorhabditis elegans, UniProt P34707); format: functional
# T4 sequence (P34707 whole entry): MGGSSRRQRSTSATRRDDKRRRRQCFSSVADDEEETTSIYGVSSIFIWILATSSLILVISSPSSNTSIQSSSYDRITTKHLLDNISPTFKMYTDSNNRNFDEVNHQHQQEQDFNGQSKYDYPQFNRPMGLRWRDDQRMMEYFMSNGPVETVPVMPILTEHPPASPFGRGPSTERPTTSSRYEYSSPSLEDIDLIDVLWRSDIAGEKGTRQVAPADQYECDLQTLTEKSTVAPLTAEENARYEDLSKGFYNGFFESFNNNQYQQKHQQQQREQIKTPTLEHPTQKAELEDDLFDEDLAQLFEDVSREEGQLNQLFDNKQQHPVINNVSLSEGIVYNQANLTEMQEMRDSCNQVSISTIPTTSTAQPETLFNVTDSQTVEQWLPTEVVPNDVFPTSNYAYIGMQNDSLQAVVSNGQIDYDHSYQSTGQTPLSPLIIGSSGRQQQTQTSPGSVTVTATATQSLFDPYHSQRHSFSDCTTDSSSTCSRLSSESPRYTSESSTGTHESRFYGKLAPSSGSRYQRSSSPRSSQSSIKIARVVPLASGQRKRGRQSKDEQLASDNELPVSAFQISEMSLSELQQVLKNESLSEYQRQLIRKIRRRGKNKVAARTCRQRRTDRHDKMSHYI
# [24] = biological target: T5, 1-acylglycerol-3-phosphate O-acyltransferase ABHD5/Perilipin-5 (Homo sapiens, UniProt Q00G26+Q8WTS1); experiment: Luminescence-based biochemical high throughput dose response assay for inhibitors of the interaction of the lipase co-activator protein, abhydrolase domain containing 5 (ABHD5) with perilipin-5 (MLDP; PLIN5) (2K validation set). [Related pubchem assays (depositor defined):AID493035, AID493241]
# T5 sequence (Q00G26 whole entry): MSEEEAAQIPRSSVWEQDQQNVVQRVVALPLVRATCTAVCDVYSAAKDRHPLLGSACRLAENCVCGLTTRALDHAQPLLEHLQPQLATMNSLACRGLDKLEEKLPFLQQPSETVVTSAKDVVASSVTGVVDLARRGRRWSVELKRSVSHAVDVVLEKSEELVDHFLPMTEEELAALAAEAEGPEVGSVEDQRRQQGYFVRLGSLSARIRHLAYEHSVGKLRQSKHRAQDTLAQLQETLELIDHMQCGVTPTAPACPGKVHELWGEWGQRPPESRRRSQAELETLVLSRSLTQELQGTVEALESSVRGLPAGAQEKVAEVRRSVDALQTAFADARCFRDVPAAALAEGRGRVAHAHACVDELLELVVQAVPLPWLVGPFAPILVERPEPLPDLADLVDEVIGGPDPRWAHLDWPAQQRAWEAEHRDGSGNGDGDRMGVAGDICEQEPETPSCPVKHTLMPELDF
# T5 sequence (Q8WTS1 whole entry): T3 sequence (Q8WTS1 whole entry)
# T1 sequence (Q00975 whole entry): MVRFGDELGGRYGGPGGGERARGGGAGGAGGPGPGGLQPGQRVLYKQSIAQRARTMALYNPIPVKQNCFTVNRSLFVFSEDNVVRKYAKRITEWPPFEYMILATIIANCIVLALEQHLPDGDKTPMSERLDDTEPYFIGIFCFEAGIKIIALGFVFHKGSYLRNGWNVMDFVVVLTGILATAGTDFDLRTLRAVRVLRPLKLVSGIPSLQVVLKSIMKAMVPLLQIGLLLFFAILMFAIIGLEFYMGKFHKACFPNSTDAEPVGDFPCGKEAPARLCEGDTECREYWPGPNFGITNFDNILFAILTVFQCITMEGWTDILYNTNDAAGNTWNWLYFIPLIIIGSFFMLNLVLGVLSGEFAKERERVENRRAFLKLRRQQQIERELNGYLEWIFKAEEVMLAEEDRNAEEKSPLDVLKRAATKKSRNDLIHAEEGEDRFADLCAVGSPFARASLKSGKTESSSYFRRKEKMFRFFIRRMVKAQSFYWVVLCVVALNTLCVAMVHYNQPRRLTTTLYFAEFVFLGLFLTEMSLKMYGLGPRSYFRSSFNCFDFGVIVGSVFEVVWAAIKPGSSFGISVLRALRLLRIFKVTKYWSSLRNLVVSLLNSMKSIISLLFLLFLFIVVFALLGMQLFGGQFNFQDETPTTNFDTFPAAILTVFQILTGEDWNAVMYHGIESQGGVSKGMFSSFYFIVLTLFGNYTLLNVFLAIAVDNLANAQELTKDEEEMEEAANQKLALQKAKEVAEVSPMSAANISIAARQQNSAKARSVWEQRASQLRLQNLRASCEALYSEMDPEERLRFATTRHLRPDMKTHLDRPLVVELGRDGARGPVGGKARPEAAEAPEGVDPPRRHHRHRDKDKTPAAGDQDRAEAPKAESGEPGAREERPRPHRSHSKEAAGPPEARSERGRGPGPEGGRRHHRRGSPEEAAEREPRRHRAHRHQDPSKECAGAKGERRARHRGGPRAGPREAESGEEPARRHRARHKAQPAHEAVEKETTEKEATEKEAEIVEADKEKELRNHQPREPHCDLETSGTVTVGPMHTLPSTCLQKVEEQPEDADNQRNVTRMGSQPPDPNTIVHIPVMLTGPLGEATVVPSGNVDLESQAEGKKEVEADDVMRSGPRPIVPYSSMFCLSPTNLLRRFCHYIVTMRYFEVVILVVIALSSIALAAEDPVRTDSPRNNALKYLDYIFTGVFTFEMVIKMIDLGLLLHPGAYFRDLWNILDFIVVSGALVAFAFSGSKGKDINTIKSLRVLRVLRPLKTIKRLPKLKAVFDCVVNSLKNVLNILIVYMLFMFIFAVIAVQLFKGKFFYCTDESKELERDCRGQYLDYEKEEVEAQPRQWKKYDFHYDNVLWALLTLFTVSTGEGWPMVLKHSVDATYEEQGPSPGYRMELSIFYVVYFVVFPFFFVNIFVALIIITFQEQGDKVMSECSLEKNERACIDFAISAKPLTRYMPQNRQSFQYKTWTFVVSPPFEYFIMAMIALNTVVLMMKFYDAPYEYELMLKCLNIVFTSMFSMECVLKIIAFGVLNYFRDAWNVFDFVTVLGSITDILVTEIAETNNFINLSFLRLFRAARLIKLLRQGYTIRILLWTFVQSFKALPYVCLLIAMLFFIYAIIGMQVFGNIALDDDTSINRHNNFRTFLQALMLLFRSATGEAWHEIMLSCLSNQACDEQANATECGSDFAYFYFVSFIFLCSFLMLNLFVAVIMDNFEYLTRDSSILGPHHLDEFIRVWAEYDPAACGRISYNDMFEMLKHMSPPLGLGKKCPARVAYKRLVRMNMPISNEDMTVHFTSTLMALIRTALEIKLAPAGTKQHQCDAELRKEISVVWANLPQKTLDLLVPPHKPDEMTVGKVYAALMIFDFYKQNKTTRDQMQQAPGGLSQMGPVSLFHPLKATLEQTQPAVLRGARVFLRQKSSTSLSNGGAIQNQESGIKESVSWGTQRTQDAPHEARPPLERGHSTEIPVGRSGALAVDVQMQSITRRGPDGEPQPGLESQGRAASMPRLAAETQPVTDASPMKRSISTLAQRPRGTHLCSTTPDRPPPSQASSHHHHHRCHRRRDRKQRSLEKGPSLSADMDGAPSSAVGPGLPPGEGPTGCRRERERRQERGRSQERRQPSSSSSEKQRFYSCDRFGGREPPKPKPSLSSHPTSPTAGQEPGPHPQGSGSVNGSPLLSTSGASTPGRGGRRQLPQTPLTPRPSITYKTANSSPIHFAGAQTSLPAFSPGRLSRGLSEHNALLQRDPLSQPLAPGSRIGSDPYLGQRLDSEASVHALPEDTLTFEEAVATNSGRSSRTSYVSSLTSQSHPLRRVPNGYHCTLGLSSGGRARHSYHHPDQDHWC
# T1 sequence (Q02410 whole entry): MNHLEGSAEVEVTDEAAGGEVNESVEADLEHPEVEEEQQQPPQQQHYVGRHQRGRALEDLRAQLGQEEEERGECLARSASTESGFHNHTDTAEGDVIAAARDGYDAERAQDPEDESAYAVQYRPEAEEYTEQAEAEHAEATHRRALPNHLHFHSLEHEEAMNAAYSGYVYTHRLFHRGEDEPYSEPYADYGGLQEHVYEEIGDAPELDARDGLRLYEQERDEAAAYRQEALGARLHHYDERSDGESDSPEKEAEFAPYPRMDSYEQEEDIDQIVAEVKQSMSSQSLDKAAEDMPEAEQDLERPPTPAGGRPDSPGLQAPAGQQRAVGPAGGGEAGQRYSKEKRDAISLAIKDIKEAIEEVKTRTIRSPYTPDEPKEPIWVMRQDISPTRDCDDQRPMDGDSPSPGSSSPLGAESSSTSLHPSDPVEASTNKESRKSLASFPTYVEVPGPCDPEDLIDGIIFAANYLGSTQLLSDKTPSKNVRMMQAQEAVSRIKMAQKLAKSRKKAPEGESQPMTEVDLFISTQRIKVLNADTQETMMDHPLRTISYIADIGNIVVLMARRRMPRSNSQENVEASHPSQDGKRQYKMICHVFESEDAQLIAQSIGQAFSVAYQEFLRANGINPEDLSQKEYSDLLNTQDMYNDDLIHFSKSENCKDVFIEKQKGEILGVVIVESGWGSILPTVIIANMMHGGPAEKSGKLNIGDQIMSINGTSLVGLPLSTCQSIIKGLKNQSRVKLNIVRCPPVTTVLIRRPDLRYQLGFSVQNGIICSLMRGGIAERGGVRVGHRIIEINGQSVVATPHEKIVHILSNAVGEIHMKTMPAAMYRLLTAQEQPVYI
# Chain of Luciferin 4-monooxygenase (P08659 whole entry): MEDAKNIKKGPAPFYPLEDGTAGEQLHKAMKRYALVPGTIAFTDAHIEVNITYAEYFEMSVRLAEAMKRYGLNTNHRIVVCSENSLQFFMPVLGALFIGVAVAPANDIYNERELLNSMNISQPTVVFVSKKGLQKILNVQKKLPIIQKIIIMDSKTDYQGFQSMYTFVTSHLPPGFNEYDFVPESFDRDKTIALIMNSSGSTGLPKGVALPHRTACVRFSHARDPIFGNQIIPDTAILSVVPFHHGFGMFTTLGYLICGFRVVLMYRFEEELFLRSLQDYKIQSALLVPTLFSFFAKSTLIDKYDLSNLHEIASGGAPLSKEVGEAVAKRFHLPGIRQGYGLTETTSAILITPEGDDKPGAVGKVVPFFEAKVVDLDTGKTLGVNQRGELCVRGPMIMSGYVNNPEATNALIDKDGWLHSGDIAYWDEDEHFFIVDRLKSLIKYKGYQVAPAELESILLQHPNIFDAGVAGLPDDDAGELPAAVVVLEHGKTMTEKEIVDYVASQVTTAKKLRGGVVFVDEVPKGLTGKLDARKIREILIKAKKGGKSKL
smiles,measurement,setting,value
Cc1ccc(Nc2ncnc3ccccc23)cc1,AC50,HeLa,154 µM (active)
CC(C)c1ccc(NC(=O)[C@H](Cc2c[nH]c3ccccc23)NC(=O)[C@@H]2Cc3ccccc3CN2)cc1,EC50,[1],119 µM (active)
same,IC50,Vero [2],5.06 µM (active)
same,EC50,BJ [3],70.9 µM (active)
same,EC50,[4],20.1 µM (active)
same,EC50,[5],> 120 µM (not active)
same,EC50,BJ [6],> 150 µM (not active)
same,CC50,Vero [7],23.5 µM (active)
same,EC50,BJ [8],> 150 µM (not active)
Cc1ccc(NN2C(=O)C=C(c3ccc(Cl)cc3)C2=O)cc1,EC50,HEK293 [9],> 59.6 µM (inactive)
same,EC50,[10],19.9 µM (active)
same,CC50,[11],10.8 µM (active)
same,AC50,[12],6.53 µM (active)
same,EC50,[13],9.18 µM (active)
same,AC50,[14],12.6 µM (active)
same,IC50,[15],11 µM (active)
same,EC50,[16],> 112 µM (not active)
same,AC50,[17],19.8 µM (active)
same,EC50,HEK293 [18],> 59.6 µM (inactive)
same,AC50,[19],< 0.195 µM (active)
same,IC50,[20],> 50 µM (inactive)
same,EC50,[21],24.1 µM (active)
Cn1cccc1C(=O)C(=O)Nc1ccc(F)c(F)c1,AC50,HeLa,72.6 µM (active)
COCCn1c(SCC(=O)Nc2ccccc2OC)nc2c3ccccc3nc-2c1O,EC50,HEK293 [9],> 59.6 µM (inactive)
same,EC50,[22],3.76 µM (active)
same,EC50,HEK293 [18],> 59.6 µM (inactive)
O=C(/C=C/c1ccccc1)/C=C/c1ccccc1,IC50,Vero [2],> 25 µM (active)
same,EC50,[10],1.22 µM (active)
same,IC50,Perilipin-1/ABHD5,1.52 µM (active)
same,AC50,[23],1.42 µM (active)
same,IC50,Protein skinhead-1,11.6 µM (active)
same,EC50,[21],0.953 µM (active)
same,IC50,[24],1.48 µM (active)
same,CC50,Vero [7],19.1 µM (active)
